Data set [1] has as its system diet induced obese C57BL/6J mice. The data set can be described thus: 3 weeks s.c. treatment in diet induced obese C57BL/6J mice: body weight and OGTT. In kind it is in vivo. The following applies: s.c. twice daily. The protocol:
C57Bl/6J male mice, 6 weeks old, were acclimatized in their new environment with free access to a high fat diet and water. 36 weeks old, the animals were randomized into groups with similar average fasting (6 hours) blood glucose (assessed from blood samples taken from the tip of the tail). The mice were treated twice daily s.c. for three weeks with compound 6 or vehicle. Body weight was recorded daily. After peptide treatment an oral glucose tolerance test (OGTT) were performed after subjecting the animals to a 6 hour fast. Animals were dosed with peptide or vehicle in the morning. Approximately four hours later an initial blood sample (fasting blood glucose level) was taken. Thereafter an oral dose of glucose was given and the animals were returned to their home cages (t=0). BG was measured at t=15 min, t=30 min, t=60 min, t=90 min and t=120 min. All animals were sacrificed immediately following blood sampling by CO2 anesthesia followed by cervical dislocation.

A further data set has as its target Glucagon receptor (Homo sapiens, UniProt P47871). The following applies: at 12.5 μM and 125 nM. The procedure: Unless specified otherwise, the sample compounds were diluted in 100% anhydrous DMSO including all dilutions. If the sample compound is provided in a different solvent all master stock dilutions are performed in the specified solvent. All control wells contained identical solvent final concentrations as the sample compound wells.
Reference agonists were handled as mentioned above serving as assay control. The reference agonists were handled as described above for Emax.

The test system of data set [2] is high fat fed C57BL/6J mice. The data set can be described thus: Body weight gain in high fat fed C57BL/6J mice, 10 days s.c. treatment. In kind it is in vivo. The settings on record: both doses 0.5 and 5 nmol/kg s.c. twice daily. The procedure: C57BL/6J mice were acclimatized in their new environment for 4 weeks with free access to a high fat diet and water. […] Throughout the study, body weights were recorded daily and used to administer the body weight-corrected doses of peptide (FIG. 6). Mice were sacrificed by cervical dislocation.

In another data set the target is GLP-1 receptor (Homo sapiens, UniProt P43220). Briefly: Class B GPCR counterscreen, calcium flux agonist format. The following applies: at 12.5 μM and 125 nM. In kind it is cell-based. An excerpt: (§1) The protocol design is as follows:
(In general: The purpose of a counterscreen is to sort out artefacts and off-target activity.)

The next data set can be described thus: in vivo. The following applies: male, cynomolgus monkey.
The target of the next data set is T1, GIP receptor (Homo sapiens, UniProt P48546).
T1 sequence (P48546 22-466): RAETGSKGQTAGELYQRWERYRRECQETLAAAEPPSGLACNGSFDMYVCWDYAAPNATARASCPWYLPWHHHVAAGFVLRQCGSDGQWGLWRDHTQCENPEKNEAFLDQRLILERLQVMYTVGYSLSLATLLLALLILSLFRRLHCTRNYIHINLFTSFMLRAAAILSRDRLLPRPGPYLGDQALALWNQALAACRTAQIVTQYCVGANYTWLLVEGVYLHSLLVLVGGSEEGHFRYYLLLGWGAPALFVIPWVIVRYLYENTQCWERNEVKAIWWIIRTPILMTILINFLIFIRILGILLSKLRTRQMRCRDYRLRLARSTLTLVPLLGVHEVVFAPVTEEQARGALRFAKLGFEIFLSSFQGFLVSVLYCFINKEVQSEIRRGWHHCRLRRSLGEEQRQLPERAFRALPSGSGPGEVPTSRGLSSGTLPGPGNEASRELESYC
Briefly: Class B GPCR counterscreen, calcium flux antagonist format. It is filed as cell-based. The following applies: at 10 μM and 100 nM. The procedure:
as §1
(§2) Using the EC80 values determined previously, stimulated all pre-incubated sample compound and reference antagonist (if applicable) wells with EC80 of reference agonist.
(§3) Read for 180 seconds using the FLIPR^TETRA (this addition added reference agonist to respective wells)—then fluorescence measurements were collected to calculate IC50-values.

The target in a further data set is T2, CRF2 receptor (Homo sapiens, UniProt Q13324).
T2 sequence (Q13324 1-411): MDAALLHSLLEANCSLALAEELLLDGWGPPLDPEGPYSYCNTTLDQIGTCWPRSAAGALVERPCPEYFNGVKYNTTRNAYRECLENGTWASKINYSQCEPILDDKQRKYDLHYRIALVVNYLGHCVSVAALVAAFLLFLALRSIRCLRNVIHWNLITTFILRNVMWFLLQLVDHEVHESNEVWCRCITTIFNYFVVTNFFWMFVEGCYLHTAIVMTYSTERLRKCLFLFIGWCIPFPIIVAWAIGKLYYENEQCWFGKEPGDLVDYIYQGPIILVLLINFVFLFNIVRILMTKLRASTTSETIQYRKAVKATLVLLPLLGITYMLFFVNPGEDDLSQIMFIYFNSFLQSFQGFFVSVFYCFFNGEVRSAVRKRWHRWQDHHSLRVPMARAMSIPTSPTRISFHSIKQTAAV
The description is as above. In kind it is cell-based. The settings on record: at 10 μM. The protocol: as §1, §2, §3

A further data set concerns the target Secretin receptor (Homo sapiens, UniProt P47872). Described as above. In kind it is cell-based. The settings on record: at 10 μM. The procedure: as §1, §2, §3
For the next data set, the system named is db/db mice. The data set can be described thus: 6 weeks s.c. administration in db/db mice: HbA1c and body weight. In kind it is in vivo. The following applies: versus vehicle. The procedure:
The HbA1c determination is based on Turbidimetric INhibition ImmunoAssay (TINIA) in which HbA1c in the sample reacts with anti-HbA1c to form soluble antigen-antibody complexes. Additions of polyhaptens react with excess anti-HbA1c antibodies to form an insoluble antibody-polyhapten complex, which can be measured turbidimetrically. Liberated hemoglobin in the hemolyzed sample is converted to a derivative having a characteristic absorption spectrum, which is measured bichromatically during the preincubation phases. The final result is expressed as percent HbA1c of total hemoglobin (Cobas®Application note A1C-2).
db/db (BKS.Cg-m+/+ Lepr^db/J) male mice, 5-6 weeks old, were obtained from Charles River Laboratories, Germany, and acclimatized in their new environment with free access to normal chow and water. […] Throughout the study, body weights were recorded daily and used to administer the body weight-corrected doses of peptide. HbA1c levels were measured on blood samples before treatment, and then once weekly during the study. […]
Blood samples were analyzed for HbA1c using the Cobas c111 analyzer (Roche Diagnostics, Mannheim, Germany). Samples for HbA1c analysis were analyzed within 24 hours of sampling.
Throughout the study, body weights were recorded daily and used to administer the body weight-corrected doses of peptide. […]

Another data set relates to high fat diet fed mice. The data set can be described thus: 3 weeks s.c. treatment, lipids in 30 weeks high fat diet fed mice. It is filed as in vivo. The following applies: 30 weeks high fat diet mice, 10 nmol/kg s.c. twice daily. The procedure: The assay is an enzymatic colorimetric method. In the presence of magnesium ions, dextran sulfate selectively forms water-soluble complexes with LDL, VLDLA and chylomicrons, which are resistant to PEG-modified enzymes. The HDL cholesterol is determined enzymatically by cholesterol esterase and cholesterol oxidase coupled with PEG to the amino groups. Cholesterol esters are broken down quantitatively to free cholesterol and fatty acids. HDL cholesterol is enzymatically oxidized to choles-4-en-3-one and H2O2, and the formed H2O2 is measured colorimetrically (Cobas®; Application note HDLC3).
The direct determination of LDL takes advantage of the selective micellary solubilization of LDL by a nonionic detergent and the interaction of a sugar compound and lipoproteins (VLDL and chylomicrons). The combination of a sugar compound with detergent enables the selective determination of LDL in plasma. The test principle is the same as that of cholesterol and HDL, but due to the sugar and detergent only LDL-cholesterol esters are broken down to free cholesterol and fatty acids. Free cholesterol is then oxidized and the formed H2O2 is measured colorimetrically (Application note LDL_C, Cobas®).
The effect was measured on LDL, HDL and triglycerides (CHO: Total Cholesterol; HDL: High Density Cholesterol; LDL: Low Density Cholesterol; TRIG: Triglycerides; HDULDL: Ratio between HDL and LDL).

[3] abbreviates: diet induced obese C57BL/6J mice.

Residues, ends and D or L forms follow the SMILES beside them.

Chain of GLP-1 receptor (P43220 24-463): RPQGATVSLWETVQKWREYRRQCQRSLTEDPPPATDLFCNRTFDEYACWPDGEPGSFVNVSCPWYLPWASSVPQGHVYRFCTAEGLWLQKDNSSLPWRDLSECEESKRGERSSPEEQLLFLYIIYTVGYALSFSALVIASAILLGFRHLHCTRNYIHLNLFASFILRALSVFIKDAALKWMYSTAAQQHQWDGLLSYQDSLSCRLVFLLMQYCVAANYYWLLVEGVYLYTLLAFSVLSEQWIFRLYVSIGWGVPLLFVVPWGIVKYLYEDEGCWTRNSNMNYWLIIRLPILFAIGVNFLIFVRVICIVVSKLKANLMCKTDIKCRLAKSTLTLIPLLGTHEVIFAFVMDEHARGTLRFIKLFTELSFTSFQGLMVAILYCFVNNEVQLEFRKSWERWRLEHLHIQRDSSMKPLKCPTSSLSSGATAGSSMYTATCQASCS
Chain of Secretin receptor (P47872 23-440, species assumed): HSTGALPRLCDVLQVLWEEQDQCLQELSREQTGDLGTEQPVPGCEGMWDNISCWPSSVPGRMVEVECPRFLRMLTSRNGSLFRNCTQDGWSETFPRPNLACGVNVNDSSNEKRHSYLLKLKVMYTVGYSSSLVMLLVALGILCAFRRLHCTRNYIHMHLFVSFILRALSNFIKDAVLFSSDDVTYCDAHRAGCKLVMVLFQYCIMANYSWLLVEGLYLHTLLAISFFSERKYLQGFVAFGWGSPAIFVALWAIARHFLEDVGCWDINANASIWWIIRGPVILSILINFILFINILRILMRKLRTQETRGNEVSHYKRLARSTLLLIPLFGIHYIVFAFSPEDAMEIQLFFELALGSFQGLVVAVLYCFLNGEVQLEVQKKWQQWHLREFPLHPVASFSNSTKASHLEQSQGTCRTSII
Chain of Glucagon receptor (P47871 26-477): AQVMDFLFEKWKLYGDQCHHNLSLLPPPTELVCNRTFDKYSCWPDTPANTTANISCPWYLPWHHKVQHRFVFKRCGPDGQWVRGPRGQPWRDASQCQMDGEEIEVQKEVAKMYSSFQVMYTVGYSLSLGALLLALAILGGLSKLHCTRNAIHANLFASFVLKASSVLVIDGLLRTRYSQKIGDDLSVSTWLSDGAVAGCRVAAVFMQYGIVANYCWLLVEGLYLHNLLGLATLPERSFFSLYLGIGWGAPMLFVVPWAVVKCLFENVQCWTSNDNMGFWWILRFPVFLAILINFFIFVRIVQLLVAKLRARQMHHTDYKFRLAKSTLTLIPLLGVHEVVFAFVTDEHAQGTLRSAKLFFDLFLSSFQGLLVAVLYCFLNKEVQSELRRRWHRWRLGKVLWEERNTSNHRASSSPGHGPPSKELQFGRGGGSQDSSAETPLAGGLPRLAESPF
Experimental for in vivo: Plasma samples were withdrawn at the following time points; predose, 5, 10, 30 min, 1, 2, 4, 8, 12, 24 and 36 h post i.v. dosing and predose, 10, 30 min, 1, 2, 4, 8, 12, 24, 36 and 48 h post s.c. dosing. The vehicle consisted of 25 mM phosphate buffered saline at pH 7.4 (25 mM sodium phosphate, 25 mM NaCl). Plasma samples were analyzed using protein precipitation followed by solid phase extraction and LC-MS/MS analysis. Pharmacokinetic parameters were calculated using non-compartmental analysis in WinNonLin version 4.1.

Regarding `CCCCCCCCCCCCCCCC(=O)N[C@@H](CCC(=O)NCCCC[C@H](NC(=O)[C@H](CCC(=O)O)NC(=O)[C@H](CC(=O)O)NC(=O)[C@H](CC(C)C)NC(=O)[C@H](Cc1ccc(O)cc1)NC(=O)[C@H](CCCCN)NC(=O)[C@H](CO)NC(=O)[C@H](Cc1ccc(O)cc1)NC(=O)[C@H](CC(=O)O)NC(=O)[C@H](CO)NC(=O)[C@@H](NC(=O)[C@H](Cc1ccccc1)NC(=O)[C@@H](NC(=O)CNC(=O)[C@H](CCC(N)=O)NC(=O)[C@H](CO)NC(=O)[C@@H](N)Cc1c[nH]cn1)[C@@H](C)O)[C@@H](C)O)C(=O)N[C@@H](CCCNC(=N)N)C(=O)N[C@@H](C)C(=O)N[C@@H](CCCCN)C(=O)N[C@@H](CC(=O)O)C(=O)N[C@@H](Cc1ccccc1)C(=O)N[C@H](C(=O)N[C@@H](CCC(=O)O)C(=O)N[C@@H](Cc1c[nH]c2ccccc12)C(=O)N[C@@H](CC(C)C)C(=O)N[C@@H](CC(C)C)C(=O)N[C@@H](CO)C(=O)N[C@@H](C)C(N)=O)[C@@H](C)CC)C(=O)O` [Compound 6], in data set [1] (diet induced obese C57BL/6J mice (30 weeks high fat diet), p<0.05), the “decrease of body weight” value is reported as 38.7%. In addition, in data set [1] (setting [3]), the “body weight level reached compared with non-treated controls on regular chow diet” value is recorded as “stabilized to the same body weight as obtained by non-treated control animals on a regular chow diet” and the “effect on fasting blood glucose” value is recorded as “significantly decreased fasting blood glucose”. For the same compound, the “effect on glucose tolerance (decrease in AUC during OGTT)” value in [1] (diet induced obese C57BL/6J mice, 6 hour fast) is on record as “no significant effect on glucose tolerance”. Besides, the “agonist activity, Glucagon receptor” value on Glucagon receptor is “exhibited agonist activities”. Besides, the “effect on body weight gain” value in [2] is on record as “significantly decreased body weight gain”. In addition, the “agonist activity, GLP-1 receptor” value at GLP-1 receptor was “exhibited agonist activities”. The bioavailability (usually the share of a dose that reaches the circulation, judged against a reference dose that is usually intravenous) in the data set “in vivo” came to 43%. Further, the Tmax (usually the time from dosing to the highest level) in the data set “in vivo” (sc, 20 nmol/kg) lay within 4 to 8 h. For the same compound, the “antagonist activity, GIP receptor” value on GIP receptor is on record as “exhibited antagonist activity”. Besides, on CRF2 receptor, the “antagonist activity, CRF2 receptor” value is reported as “exhibited antagonist activity”. In addition, at Secretin receptor, the “antagonist activity, Secretin receptor” value is recorded as “exhibited antagonist activity”. In addition, in the data set with db/db mice (db/db mice, 5 nmol/kg s.c. twice daily, p<0.0001), the “effect on body weight gain” value was “significantly decreased body weight gain compared to vehicle”. Besides, the “effect on increase in HbA1c over time” value in the data set with db/db mice (db/db mice, 1, 2.5 and 5 nmol/kg s.c. twice daily) is “did not at any time-point reduce the increase in HbA1c”. Also, in the data set on high fat diet fed mice (P<0.001), the “effect on HDL” value is reported as “significantly decreased”, the “effect on LDL” value is “significantly decreased” and the “effect on total cholesterol” value is “significantly decreased”. The effect on triglycerides entry in the data set with high fat diet fed mice (P<0.05) is “significantly decreased”. For the same compound, the “effect on ratio HDULDL” value with high fat diet fed mice (p<0.001) is recorded as “increased significantly”.

In the case of `CCCCCCCCCCCCCCCC(=O)N[C@@H](CCC(=O)NCCCC[C@H](NC(=O)[C@H](CCC(=O)O)NC(=O)[C@H](CC(=O)O)NC(=O)[C@H](CC(C)C)NC(=O)[C@H](Cc1ccc(O)cc1)NC(=O)[C@H](CCCCN)NC(=O)[C@H](CO)NC(=O)[C@H](Cc1ccc(O)cc1)NC(=O)[C@H](CC(=O)O)NC(=O)[C@H](CO)NC(=O)[C@@H](NC(=O)[C@H](Cc1ccccc1)NC(=O)[C@@H](NC(=O)CNC(=O)[C@H](CCC(N)=O)NC(=O)C(C)(C)NC(=O)[C@@H](N)Cc1c[nH]cn1)[C@@H](C)O)[C@@H](C)O)C(=O)N[C@@H](CCCNC(=N)N)C(=O)N[C@@H](C)C(=O)N[C@@H](CCCCN)C(=O)N[C@@H](CC(=O)O)C(=O)N[C@@H](Cc1ccccc1)C(=O)N[C@H](C(=O)N[C@@H](CCC(=O)O)C(=O)N[C@@H](Cc1c[nH]c2ccccc12)C(=O)N[C@@H](CC(C)C)C(=O)N[C@@H](CC(C)C)C(=O)N[C@@H](CO)C(=O)N[C@@H](C)C(N)=O)[C@@H](C)CC)C(=O)O` [Compound 7] (HELM PEPTIDE1{H.[Aib].Q.G.T.F.T.S.D.Y.S.K.Y.L.D.E.K.R.A.K.D.F.I.E.W.L.L.S.A.[am]}|PEPTIDE2{[CCCCCCCCCCCCCCCC(=O)[*:2]].[gGlu]}$PEPTIDE1,PEPTIDE2,17:R3-2:R2$$$V2.0), the “effect on body weight gain” value in [2] is given as “significantly decreased body weight gain”.
